Entries after “also recorded” stand apart in the source; their conditions may differ. Like-named read-outs stand apart in the source and are kept apart here.
Tests used:
[1] = target: T1, phosphodiesterase, olfactory cilia (Rattus norvegicus, UniProt Q63421); test: PDE activity in olfactory cilia; assay type: biochemical
T1 construct: Tissue was prepared either as cilia, using the method of Sklar et al., (1986); from tissue; host or cells: olfactory cilia preparation
Procedure: (§1) Assays were performed with 100 μM Ca^2+ (hatched bars) or with 100 μM EGTA (solid bars).
(§2) Activity is graphed as a function of total cyclic nucleotides present using olfactory cilia, or mucosa with 1 μM cGMP.
(§3) FIG 4B is a graph of activity, 1 μM cGMP used as substrate: 100 μM EGTA (open circles); 100 μM Ca^2+ (filled circles); 100 μM Ca^2+ in the presence of 200 μM W-7 (filled squares).
(§4) Enzymol. […] Tissue was warmed to 37° C. and 100 μl aliquots containing 1-2 […] protein added to initiate the assay which was conducted for 20 minutes at 37° C. […] For experiments at 100 μM free Ca^2+, the reaction mix included 0.2 mM CaCl2 and 50 nM calmodulin (Sigma) where appropriate. Low Ca^2+ conditions were achieved by addition of 2.0 mM EGTA. Ca^2+ levels were measured against standards using a conductivity meter and Ca^2+ electrode (Biomedical Instrumentation Group, Philadelphia, Pa.). Following incubation, reactions were stopped by boiling for 1.5 minutes and cooling on ice, whereupon 100 μl aliquots of 5'-nucleotidase (10 units/ml in 0.1M Tris pH 8.1) were added and samples incubated for 30 minutes at 37° C. Incubation mixtures were applied to QAE-Sephadex columns pre-equilibrated with 30 mM ammonium formate, with flow through and eluate from two 1 ml washes collected in plastic scintillation vials.

[2] = system: phosphodiesterase, olfactory mucosa; test: PDE activity in homogenates of olfactory mucosa (turbinates); assay type: biochemical, rat; details: for inhibition of cAMP hydrolysis / inhibition of cGMP hydrolysis / reduction of PDE activity: 10 μM drug; for inhibition of cAMP hydrolysis: 1 μM cAMP, no added Ca^2+
Procedure: as §1, §4
Subcellular fractions were obtained as described below. Rats were anesthetized with carbon dioxide, decapitated and tissue dissected. Nasal turbinates were dissected intact and consisted of the entire olfactory mucosa, including endothelial tissue, olfactory epithelium, and overlying mucous. […] For fractionation, tissue was first centrifuged at 500×g for 5 minutes in a Sorvall RC 2B superspeed refrigerated centrifuge (DuPont, Wilmington, Del.). The crude particulate (P1) pellet was discarded and the supernatant (S1) centrifuged 20 minutes at 28,000×g. The resultant pellet (P2) was washed in BHB, centrifuged and resuspended in 5 ml BHB, and designated the membrane fraction. The supernatant (S2) was centrifuged 50 minutes at 230,000×g in Beckman L8-M ultracentrifuge (Fullerton, Calif.). The pellet (P3) was washed in BHB, recentrifuged in an ultracentrifuge, and resuspended in 2 ml BHB as the microsomal fraction. The supernatant (S3) was saved as the soluble fraction and visually inspected for absence of cloudiness or lipid droplets. In all cases, protein was assayed by the Bradford method using Coomassie Protein Assay Reagent (Pierce, Rockford, Ill.) and BSA as standard.

[3] = system: high affinity cAMP-selective form of PDE; details: reported in literature, cited from earlier work
[4] = target: T1, phosphodiesterase, olfactory cilia; test: PDE activity in olfactory cilia; assay type: biochemical; remark: listed apart in the source
[5] = system: phosphodiesterase, olfactory cilia; test: PDE activity in olfactory cilia; assay type: biochemical, rat
Procedure: as §1, §2, §3, §4

cGMP-inhibited PDE = details: reported in literature; cited from earlier work
[6] = 10 μM drug, presence or absence of Ca^2+
[7] = olfactory mucosa, 1 μM cGMP, 100 μM EGTA

T1 sequence (Q63421 whole entry): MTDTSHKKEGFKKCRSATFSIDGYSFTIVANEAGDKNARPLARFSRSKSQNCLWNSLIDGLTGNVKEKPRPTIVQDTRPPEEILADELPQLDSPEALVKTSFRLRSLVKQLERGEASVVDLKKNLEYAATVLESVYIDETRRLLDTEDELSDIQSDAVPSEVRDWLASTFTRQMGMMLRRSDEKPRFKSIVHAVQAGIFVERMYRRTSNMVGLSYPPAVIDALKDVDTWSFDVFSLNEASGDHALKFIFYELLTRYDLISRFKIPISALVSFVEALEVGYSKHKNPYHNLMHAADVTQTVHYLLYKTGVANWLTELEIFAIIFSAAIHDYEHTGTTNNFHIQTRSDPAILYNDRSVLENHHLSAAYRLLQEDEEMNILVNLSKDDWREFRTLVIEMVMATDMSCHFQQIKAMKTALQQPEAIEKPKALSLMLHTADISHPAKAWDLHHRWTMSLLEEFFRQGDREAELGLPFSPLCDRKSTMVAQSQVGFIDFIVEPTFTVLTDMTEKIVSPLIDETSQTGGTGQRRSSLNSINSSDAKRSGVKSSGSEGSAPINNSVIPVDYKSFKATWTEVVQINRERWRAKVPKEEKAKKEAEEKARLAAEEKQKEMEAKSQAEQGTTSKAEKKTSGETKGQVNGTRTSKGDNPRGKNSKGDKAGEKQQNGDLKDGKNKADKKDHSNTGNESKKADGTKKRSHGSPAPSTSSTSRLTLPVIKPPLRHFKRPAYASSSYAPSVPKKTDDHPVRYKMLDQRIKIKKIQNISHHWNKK

For `COc1ccc(C2CNC(=O)C2)cc1OC1CCCC1` (stereo not drawn) [rolipram], the “inhibition of PDE in cilia” value [1, 6] was “neither rolipram (10 μM) nor Ro20-1724 (10 μM) inhibit PDE”, the “inhibition of cAMP hydrolysis” value ([2]; olfactory mucosa, 100 μM EGTA) was 49% and the “inhibition of cGMP hydrolysis” value [2, 7] was “Neither 10 μM rolipram nor 10 μM Ro20-1724 inhibit cGMP hydrolysis”. The “selective inhibition of the high affinity cAMP-selective form of PDE” value (from here on “selective inhibition”) [3] was “selectively inhibited; also recorded: selectively inhibit the high affinity cAMP-selective form of PDE”.

In the case of `CCCCn1c(=O)c2c(ncn2CC(C)=O)n(CCCC)c1=O` [denbufylline], the inhibition at 10 µM ([1]; 10 μM drug, 1 μM cGMP, presence or absence of Ca^2+, read-out: inhibition of ciliary cGMP PDE) is reported as 15 to 20%, the “inhibition of cAMP hydrolysis” value ([2]; olfactory mucosa, 100 μM EGTA) is reported as 64% and the “inhibition of cGMP hydrolysis” value [2, 7] is reported as “about 20%”. For the same molecule, the “selective inhibition” value [3] was “selectively inhibit the high affinity cAMP-selective form of PDE” and the inhibition at 10 µM ([4]; read-out: inhibition of ciliary cAMP PDE) was 15 to 20%.

With `Nc1nc2c(ncn2[C@@H]2O[C@@H]3COP(=O)(O)O[C@H]3[C@H]2O)c(=O)[nH]1` [cGMP] the “effect of cGMP on cAMP hydrolysis when Ca^2+ and calmodulin are added” value ([5]; cilia and olfactory mucosa, Ca^2+ and calmodulin added) was “diminishes markedly”, the “maximal enhancement of cAMP hydrolysis by cGMP” value ([5]; cilia, 1 μM cGMP, 10 μM cAMP, 100 μM EGTA) was 20-30% and the “maximal enhancement of cAMP hydrolysis by cGMP” value ([2]; olfactory mucosa, 1 μM cGMP, 10 μM cAMP, 100 μM EGTA) was 20-30%.

For calmodulin, the EC50 ([1]; cilia, 1 μM cGMP, read-out: half maximal stimulation of PDE activity by calmodulin) was 10 nM, the “effect of calmodulin on stimulation of enzyme activity by Ca^2+” value ([2]; mucosal homogenates, 1 μM cAMP or cGMP) was “further enhances the stimulation of enzyme activity by Ca^2+” and the EC50 ([4]; cilia, 1 μM cAMP, read-out: half maximal stimulation of PDE activity by calmodulin) was 10 nM.

In the case of `CC1CC(=O)NN=C1c1ccc(-n2ccnc2)cc1` (stereo not drawn) [CI 930], the inhibition at 10 µM ([1]; 10 μM drug, regardless of assay conditions, read-out: inhibition of PDE in cilia) is listed as < 10%, the “selectivity for cGMP-inhibited PDE” value (cGMP-inhibited PDE) is listed as “selective for cGMP-inhibited PDE” and the “reduction of PDE activity” value ([2]; 100 μM Ca^2+) is listed as “about 15%”. The “reduction of PDE activity” value ([2]; 100 μM EGTA) was “about 30%”.

In the case of `NCCCCCCNS(=O)(=O)c1cccc2c(Cl)cccc12` [W-7], the “reduction of stimulation by calmodulin” value ([5]; cilia, 100 μM W-7 (cAMP) or 200 μM W-7 (cGMP), 100 μM Ca^2+) is reported as “substantially reduces stimulation by calmodulin”.

For `Cc1[nH]c(=O)c(C#N)cc1-c1ccncc1` [milrinone], the inhibition at 10 µM ([1]; read-out: inhibition of PDE in cilia) is listed as < 10%, the “selectivity for cGMP-inhibited PDE” value (cGMP-inhibited PDE) is listed as “selective for cGMP-inhibited PDE” and the “reduction of PDE activity” value ([2]; 100 μM Ca^2+) is listed as “about 15%”. The “reduction of PDE activity” value ([2]; 100 μM EGTA) was “about 30%”.

In the case of `CCCCOc1cc(CC2CNC(=O)N2)ccc1OC` (stereo not drawn) [Ro20-1724], the “inhibition of PDE in cilia” value [1, 6] is reported as “neither rolipram (10 μM) nor Ro20-1724 (10 μM) inhibit PDE”, the “inhibition of olfactory PDE in the presence of calcium” value ([2]; olfactory PDE, presence of calcium) is reported as “about 15%” and the “inhibition of cAMP hydrolysis” value ([2]; olfactory mucosa, 100 μM EGTA) is reported as 66%. For the same molecule, the “inhibition of cGMP hydrolysis” value [2, 7] was “Neither 10 μM rolipram nor 10 μM Ro20-1724 inhibit cGMP hydrolysis”, the “selective inhibition” value [3] was “selectively inhibit the high affinity cAMP-selective form of PDE” and the “selective inhibition” value ([3]; listed as Ro 20-1724) was “selective inhibitor of calcium/calmodulin-independent, high affinity PDE”.

Source: patent publication US5525329A, “Inhibition of phosphodiesterase in olfactory mucosa” (priority 1995, dated 1996)
